Test results reported in US20230364070A1, “PYRROLO[3,2-C]PYRIDIN-4-ONE DERIVATIVES USEFUL IN THE TREATMENT OF CANCER” (Scorpion Therapeutics, Inc., priority 2020, published 2023).

Experiments:
Format in all cases: cell-based
[1] = molecular target: T1, pEGFR in Ba/F3 cells expressing EGFR exon 20 ASV Ins V769_D770 (Homo sapiens, UniProt P00533, INS769ASV); assay: Inhibitor activity on EGFR phosphorylation (pEGFR AlphaLISA, 2 h), Ba/F3 EGFR exon 20 ASV insertion; settings: Ba/F3 EGFR exon 20 ASV Ins V769_D770
T1 construct: expressed in transfected cells; host or cells: Ba/F3 (murine pro-B cells), retroviral transduction, puromycin selection, IL3-independent pool

[2] = molecular target: T2, pEGFR in Ba/F3 cells expressing EGFR exon 20 NPG Ins D770_N771 (Homo sapiens, UniProt P00533, INS770NPG); assay: Inhibitor activity on EGFR phosphorylation (pEGFR AlphaLISA, 2 h), Ba/F3 EGFR exon 20 NPG insertion; settings: Ba/F3 EGFR exon 20 NPG Ins D770_N771
T2 construct: expressed in transfected cells; host or cells: Ba/F3 (murine pro-B cells), retroviral transduction, puromycin selection, IL3-independent pool
T2 sequence (P00533 with tags, fused parts or gaps INS770NPG): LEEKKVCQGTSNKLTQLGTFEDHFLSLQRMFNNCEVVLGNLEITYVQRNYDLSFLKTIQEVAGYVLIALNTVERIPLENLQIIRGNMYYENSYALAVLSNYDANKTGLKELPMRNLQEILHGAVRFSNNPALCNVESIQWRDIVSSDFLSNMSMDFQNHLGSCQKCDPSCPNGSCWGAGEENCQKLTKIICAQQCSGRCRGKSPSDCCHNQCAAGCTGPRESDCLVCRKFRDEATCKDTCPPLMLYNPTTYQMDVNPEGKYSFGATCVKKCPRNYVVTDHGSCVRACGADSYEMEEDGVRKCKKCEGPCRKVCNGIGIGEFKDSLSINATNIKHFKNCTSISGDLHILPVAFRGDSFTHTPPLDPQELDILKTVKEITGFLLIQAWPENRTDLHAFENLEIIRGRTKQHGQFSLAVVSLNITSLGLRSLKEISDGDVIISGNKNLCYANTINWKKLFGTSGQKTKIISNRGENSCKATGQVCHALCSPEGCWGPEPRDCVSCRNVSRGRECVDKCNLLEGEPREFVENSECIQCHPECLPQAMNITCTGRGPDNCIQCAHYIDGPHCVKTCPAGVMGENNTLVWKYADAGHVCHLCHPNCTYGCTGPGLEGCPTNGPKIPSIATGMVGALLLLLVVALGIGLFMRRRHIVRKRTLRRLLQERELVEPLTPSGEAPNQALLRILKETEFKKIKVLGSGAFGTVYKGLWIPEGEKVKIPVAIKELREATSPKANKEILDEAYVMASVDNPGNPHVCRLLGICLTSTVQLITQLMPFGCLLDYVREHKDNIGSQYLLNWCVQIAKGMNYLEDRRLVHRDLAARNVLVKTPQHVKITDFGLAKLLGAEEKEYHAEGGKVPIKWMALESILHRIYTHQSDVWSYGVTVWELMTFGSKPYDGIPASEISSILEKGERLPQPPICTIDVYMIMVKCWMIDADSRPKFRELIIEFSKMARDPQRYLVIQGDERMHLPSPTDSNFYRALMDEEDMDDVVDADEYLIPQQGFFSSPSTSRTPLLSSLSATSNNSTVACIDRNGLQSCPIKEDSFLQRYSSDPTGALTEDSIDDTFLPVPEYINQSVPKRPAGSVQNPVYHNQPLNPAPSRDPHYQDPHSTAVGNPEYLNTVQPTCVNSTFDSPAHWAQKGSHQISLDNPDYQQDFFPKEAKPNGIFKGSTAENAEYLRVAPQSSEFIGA

pEGFR in CUTO14 cells = molecular target: T3, pEGFR in CUTO14 cells (Homo sapiens, UniProt P00533, DUP767-769); assay: Inhibitor activity on EGFR phosphorylation (pEGFR AlphaLISA, 2 h), CUTO14 cells
T3 construct: endogenous in cells; host or cells: CUTO14 cells
Experimental: CUTO14 cells were obtained from Dr. Robert C. Doebele at the University of Colorado.
Shake 350 rpm for 1 hr in the dark • 3.4 Prepare donor mix under low light conditions prior to use. Dispense 5 μL of donor mix to all the wells. Mix well on the shaker, seal and wrap in aluminum foil and incubate 1.5 hrs at room temperature in the dark • 3.5 Transfer 18.5 μL mixture to OptiPlate 384, and read using an Envision.

[3] = molecular target: T4, Ba/F3 cells with EGFR exon 20 NPG Ins D770_N771 (Homo sapiens, UniProt P00533, INS770NPG); assay: EGFR activity: Ba/F3 cell viability (CellTiter-Glo, 72 h), EGFR exon 20 NPG insertion; settings: EGFR exon 20 NPG Ins D770_N771, cell viability, read-out: BaF3 NPG IC50
T4 construct: expressed in transfected cells; host or cells: Ba/F3 (murine pro-B cells), retroviral transduction, puromycin selection, IL3-independent pool
T4 sequence (P00533 with tags, fused parts or gaps INS770NPG): as above

[4] = molecular target: T5, Ba/F3 cells with EGFR exon 20 ASV Ins V769_D770 (Homo sapiens, UniProt P00533, INS769ASV); assay: EGFR activity: Ba/F3 cell viability (CellTiter-Glo, 72 h), EGFR exon 20 ASV insertion; settings: EGFR exon 20 ASV Ins V769_D770, cell viability, read-out: BaF3 ASV IC50
T5 construct: expressed in transfected cells; host or cells: Ba/F3 (murine pro-B cells), retroviral transduction, puromycin selection, IL3-independent pool
T5 sequence (P00533 with tags, fused parts or gaps INS769ASV): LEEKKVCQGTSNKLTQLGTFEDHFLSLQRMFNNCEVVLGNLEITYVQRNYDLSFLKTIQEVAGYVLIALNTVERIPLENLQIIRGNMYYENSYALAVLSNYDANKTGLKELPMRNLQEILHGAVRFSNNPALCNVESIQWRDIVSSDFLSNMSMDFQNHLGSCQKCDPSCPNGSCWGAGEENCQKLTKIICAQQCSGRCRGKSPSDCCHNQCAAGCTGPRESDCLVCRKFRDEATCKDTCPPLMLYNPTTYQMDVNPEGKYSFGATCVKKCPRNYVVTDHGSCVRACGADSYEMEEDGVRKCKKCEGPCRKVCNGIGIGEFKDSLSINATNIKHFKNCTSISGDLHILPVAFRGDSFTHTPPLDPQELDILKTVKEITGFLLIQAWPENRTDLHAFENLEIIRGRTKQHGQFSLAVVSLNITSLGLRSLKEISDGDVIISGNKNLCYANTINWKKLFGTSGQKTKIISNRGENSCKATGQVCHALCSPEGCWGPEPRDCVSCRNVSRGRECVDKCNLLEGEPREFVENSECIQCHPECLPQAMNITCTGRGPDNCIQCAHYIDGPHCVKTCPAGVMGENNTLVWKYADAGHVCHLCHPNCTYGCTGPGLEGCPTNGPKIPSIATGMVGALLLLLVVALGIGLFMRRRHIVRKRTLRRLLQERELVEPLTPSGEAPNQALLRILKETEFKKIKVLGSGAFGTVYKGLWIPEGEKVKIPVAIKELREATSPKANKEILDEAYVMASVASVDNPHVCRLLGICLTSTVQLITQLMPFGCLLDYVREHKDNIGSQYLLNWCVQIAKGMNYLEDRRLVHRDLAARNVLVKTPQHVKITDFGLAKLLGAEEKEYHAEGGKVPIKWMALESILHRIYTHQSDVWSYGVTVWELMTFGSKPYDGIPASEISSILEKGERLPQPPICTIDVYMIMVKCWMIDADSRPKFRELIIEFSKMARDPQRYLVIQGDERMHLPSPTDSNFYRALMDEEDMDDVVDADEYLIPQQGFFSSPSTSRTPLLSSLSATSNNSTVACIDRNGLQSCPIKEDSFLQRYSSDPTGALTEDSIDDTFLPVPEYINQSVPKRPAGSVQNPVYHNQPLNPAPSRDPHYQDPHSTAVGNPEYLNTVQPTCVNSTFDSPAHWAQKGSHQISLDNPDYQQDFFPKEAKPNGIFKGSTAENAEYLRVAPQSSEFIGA

Ba/F3 cells with EGFR WT = molecular target: T6, Ba/F3 cells with EGFR WT (Homo sapiens, UniProt P00533); assay: EGFR activity: Ba/F3 cell viability (CellTiter-Glo, 72 h), EGFR WT; settings: read-out: BaF3 WT IC50
T6 construct: expressed in transfected cells; host or cells: Ba/F3 (murine pro-B cells), retroviral transduction, puromycin selection, maintained with EGF
T6 sequence (P00533 25-1210): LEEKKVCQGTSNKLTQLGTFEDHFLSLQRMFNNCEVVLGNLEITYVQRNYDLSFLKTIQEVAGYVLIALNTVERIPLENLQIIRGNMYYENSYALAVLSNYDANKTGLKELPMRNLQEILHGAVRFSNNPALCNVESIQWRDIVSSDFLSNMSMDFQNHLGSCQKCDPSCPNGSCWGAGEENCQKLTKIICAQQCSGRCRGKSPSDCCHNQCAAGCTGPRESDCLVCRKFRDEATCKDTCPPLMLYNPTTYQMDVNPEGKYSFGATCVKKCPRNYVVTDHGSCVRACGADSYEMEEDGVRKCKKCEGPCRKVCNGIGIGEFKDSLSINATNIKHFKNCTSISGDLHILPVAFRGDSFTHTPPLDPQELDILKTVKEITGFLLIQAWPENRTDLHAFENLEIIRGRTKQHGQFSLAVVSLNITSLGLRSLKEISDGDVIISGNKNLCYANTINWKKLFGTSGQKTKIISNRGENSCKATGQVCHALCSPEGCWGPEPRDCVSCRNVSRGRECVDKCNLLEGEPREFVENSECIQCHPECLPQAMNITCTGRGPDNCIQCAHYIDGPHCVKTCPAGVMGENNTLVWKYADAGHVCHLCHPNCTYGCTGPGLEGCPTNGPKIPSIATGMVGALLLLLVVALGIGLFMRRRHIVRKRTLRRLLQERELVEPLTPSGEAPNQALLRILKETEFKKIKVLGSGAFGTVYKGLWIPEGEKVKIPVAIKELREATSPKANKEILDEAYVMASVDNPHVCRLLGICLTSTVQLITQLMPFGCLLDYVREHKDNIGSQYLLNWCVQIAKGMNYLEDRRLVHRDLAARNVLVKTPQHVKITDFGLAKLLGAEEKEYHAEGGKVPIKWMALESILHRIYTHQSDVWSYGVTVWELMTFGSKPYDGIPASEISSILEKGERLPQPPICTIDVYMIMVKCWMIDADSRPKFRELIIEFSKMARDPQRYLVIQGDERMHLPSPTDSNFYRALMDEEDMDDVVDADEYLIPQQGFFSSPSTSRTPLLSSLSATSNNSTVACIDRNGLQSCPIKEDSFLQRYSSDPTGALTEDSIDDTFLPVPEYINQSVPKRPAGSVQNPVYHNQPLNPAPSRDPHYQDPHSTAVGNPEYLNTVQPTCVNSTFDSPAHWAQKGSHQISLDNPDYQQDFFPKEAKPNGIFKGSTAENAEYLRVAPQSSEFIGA

SMILES | IC50 [1] | IC50 [2] | IC50 (pEGFR in CUTO14 cells) | IC50 [3] | IC50 [4] | IC50 (Ba/F3 cells with EGFR WT)
C=CC(=O)N1CC[C@H]1COc1cnccc1-c1[nH]c2c(c1Nc1cccc(Cl)c1OC)C(=O)NCC2 [145b, 3-[(3-chloro-2-methoxyphenyl)amino]-2-(3-[[(2S)-1-(prop-2-enoyl)azetidin-2-yl]methoxy]pyridin-4-yl)-1H,5H,6H,7H-pyrrolo[3,2-c]pyridin-4-one] | < 100 nM | < 100 nM | < 100 nM |  |  | 
COc1c(F)cccc1Nc1c(-c2ccncc2OCC2CCn3ccnc32)[nH]c2c1C(=O)NCC2 (stereo not drawn) [Compound 124, 3-[(3-fluoro-2-methoxyphenyl)amino]-2-(3-[5H,6H,7H-pyrrolo[1,2-a]imidazol-7-ylmethoxy]pyridin-4-yl)-1H,5H,6H,7H-pyrrolo[3,2-c]pyridin-4-one] | 100 to 1000 nM | < 100 nM |  | > 1000 nM | 100 to 1000 nM | > 1000 nM
COc1c(F)cccc1Nc1c(-c2ccncc2OCc2csc3nccn23)[nH]c2c1C(=O)NCC2 [Compound 130, 3-[(3-fluoro-2-methoxyphenyl)amino]-2-(3-[imidazo[2,1-b][1,3]thiazol-3-ylmethoxy]pyridin-4-yl)-1H,5H,6H,7H-pyrrolo[3,2-c]pyridin-4-one] | > 1000 nM |  |  | > 1000 nM | > 1000 nM | > 1000 nM
COc1c(F)cccc1Nc1c(-c2ccncc2OCc2cnc3n2CCC3)[nH]c2c1C(=O)NCC2 [Compound 150, 2-(3-((6,7-dihydro-5H-pyrrolo[1,2-a]imidazol-3-yl)methoxy)pyridin-4-yl)-3-((3-fluoro-2-methoxyphenyl)amino)-1,5,6,7-tetrahydro-4H-pyrrolo[3,2-c]pyridin-4-one] | < 100 nM |  |  | > 1000 nM | 100 to 1000 nM | > 1000 nM
COc1c(F)cccc1Nc1c(-c2ccncc2OCc2ncco2)[nH]c2c1C(=O)NCC2 [Compound 474, 3-[(3-fluoro-2-methoxyphenyl)amino]-2-[3-(1,3-oxazol-2-ylmethoxy)pyridin-4-yl]-1H,5H,6H,7H-pyrrolo[3,2-c]pyridin-4-one] | < 100 nM |  |  | > 1000 nM | 100 to 1000 nM | 100 to 1000 nM
COc1c(F)cccc1Nc1c(-c2ccncc2OCc2cccn3ccnc23)[nH]c2c1C(=O)NCC2 [Compound 475, 3-[(3-fluoro-2-methoxyphenyl)amino]-2-(3-[imidazo[1,2-a]pyridin-8-ylmethoxy]pyridin-4-yl)-1H,5H,6H,7H-pyrrolo[3,2-c]pyridin-4-one] | < 100 nM | < 100 nM |  | 100 to 1000 nM | 100 to 1000 nM | 100 to 1000 nM
COc1c(F)cccc1Nc1c(-c2ccncc2OCc2ncc(C)cn2)[nH]c2c1C(=O)NCC2 [Compound 477, 3-[(3-fluoro-2-methoxyphenyl)amino]-2-[3-[(5-methylpyrimidin-2-yl)methoxy]pyridin-4-yl]-1H,5H,6H,7H-pyrrolo[3,2-c]pyridin-4-one] | < 100 nM | < 100 nM |  | < 100 nM |  | < 100 nM
COc1c(F)cccc1Nc1c(-c2ccncc2OCc2ccncn2)[nH]c2c1C(=O)NCC2 [Compound 478, 3-[(3-fluoro-2-methoxyphenyl)amino]-2-[3-(pyrimidin-4-ylmethoxy)pyridin-4-yl]-1H,5H,6H,7H-pyrrolo[3,2-c]pyridin-4-one] | < 100 nM | < 100 nM |  | < 100 nM | < 100 nM | 100 to 1000 nM
COc1c(F)cccc1Nc1c(-c2ccncc2OCc2ccnn2C)[nH]c2c1C(=O)NCC2 [Compound 480, 3-[(3-fluoro-2-methoxyphenyl)amino]-2-[3-[(2-methylpyrazol-3-yl)methoxy]pyridin-4-yl]-1H,5H,6H,7H-pyrrolo[3,2-c]pyridin-4-one] | 100 to 1000 nM | < 100 nM |  | > 1000 nM | > 1000 nM | > 1000 nM
COc1c(F)cccc1Nc1c(-c2ccncc2OCc2cn3ccccc3n2)[nH]c2c1C(=O)NCC2 [Compound 481, 3-[(3-fluoro-2-methoxyphenyl)amino]-2-(3-[imidazo[1,2-a]pyridin-2-ylmethoxy]pyridin-4-yl)-1H,5H,6H,7H-pyrrolo[3,2-c]pyridin-4-one] | < 100 nM |  |  | > 1000 nM | < 100 nM | 100 to 1000 nM
COc1c(F)cccc1Nc1c(-c2ccncc2OCCc2ccco2)[nH]c2c1C(=O)NCC2 [Compound 483, 3-[(3-fluoro-2-methoxyphenyl)amino]-2-[3-[2-(furan-2-yl)ethoxy]pyridin-4-yl]-1H,5H,6H,7H-pyrrolo[3,2-c]pyridin-4-one] | < 100 nM | < 100 nM |  | < 100 nM | 100 to 1000 nM | 100 to 1000 nM
C=CC(=O)NC1(C#Cc2cnccc2-c2[nH]c3c(c2Nc2cccc(Cl)c2OC)C(=O)NCC3)CC1 [compound 207, N-{1-[2-(4-{3-[(3-chloro-2-methoxyphenyl)amino]-4-oxo-1H,5H,6H,7H-pyrrolo[3,2-c]pyridin-2-yl}pyridin-3-yl)ethynyl]cyclopropyl}prop-2-enamide] | < 100 nM | < 100 nM | < 100 nM |  |  | 
CC#CC(=O)N1CC[C@@H]1COc1cnccc1-c1[nH]c2c(c1Nc1cccc(Cl)c1OC)C(=O)NCC2 [compound 227] |  | < 100 nM | < 100 nM | < 100 nM | < 100 nM | 100 to 1000 nM
C=CC(=O)N1CCC[C@]1(C)C#Cc1cnccc1-c1[nH]c2c(c1Nc1cccc(F)c1OC)C(=O)NCC2 [compound 245, 3-[(3-fluoro-2-methoxyphenyl)amino]-2-(3-{2-[(2R)-2-methyl-1-(prop-2-enoyl)pyrrolidin-2-yl]ethynyl}pyridin-4-yl)-1H,5H,6H,7H-pyrrolo[3,2-c]pyridin-4-one] |  | < 100 nM | < 100 nM |  |  | 
C=CC(=O)NC(C)(C)C#Cc1cnccc1-c1[nH]c2c(c1Nc1cccc(F)c1OC)C(=O)NCC2 [compound 258, N-[4-(4-{3-[(3-fluoro-2-methoxyphenyl)amino]-4-oxo-1H,5H,6H,7H-pyrrolo[3,2-c]pyridin-2-yl}pyridin-3-yl)-2-methylbut-3-yn-2-yl]prop-2-enamide] |  | < 100 nM | < 100 nM |  |  | 
COc1c(Cl)cccc1Nc1c(-c2ccncc2C#CC2CC2)[nH]c2c1C(=O)NCC2 [compound 488] | < 100 nM |  |  | < 100 nM | < 100 nM | 100 to 1000 nM
COc1c(Cl)cccc1Nc1c(-c2ccncc2C#CC2(C)COC2)[nH]c2c1C(=O)NCC2 [compound 490] | < 100 nM |  |  |  | 100 to 1000 nM | > 1000 nM
C=CC(=O)NC(C)(C)C#Cc1cnccc1-c1[nH]c2c(c1Nc1cccc(Cl)c1OC)C(=O)NCC2 [compound 492, N-[4-(4-{3-[(3-chloro-2-methoxyphenyl)amino]-4-oxo-1H,5H,6H,7H-pyrrolo[3,2-c]pyridin-2-yl}pyridin-3-yl)-2-methylbut-3-yn-2-yl]prop-2-enamide] |  | < 100 nM | < 100 nM |  |  | 
C=CC(=O)N1CC(F)(F)C[C@@H]1C#Cc1cnccc1-c1[nH]c2c(c1Nc1cccc(Cl)c1OC)C(=O)NCC2 [compound 519, 3-[(3-chloro-2-methoxyphenyl)amino]-2-(3-[2-[(2R)-4,4-difluoro-1-(prop-2-enoyl)pyrrolidin-2-yl]ethynyl]pyridin-4-yl)-1H,5H,6H,7H-pyrrolo[3,2-c]pyridin-4-one] | < 100 nM | < 100 nM | < 100 nM |  |  | 
